Measurements: patent US20220143183A1, “PHOTOSWITCHABLE PROTACS AND SYNTHESIS AND USES THEREOF” (New York University, priority 2019, published 2022)

How the values were obtained:
[1] = UV-Vis photoswitching and photostationary states (PSS); type: physicochemical
From the text: The photoswitching and thermal relaxation properties of one of the lead compounds, PHOTAC-I-3, is shown in FIG. 3A-E. The optimal wavelength to switch to the cis isomer is 390 nm but similar photostationary states (PSS) can be obtained between 380 and 400 nm (FIG. 3C). At 390 nm a PSS of >90% cis could be obtained. Rapid cis to trans isomerization could be achieved by irradiation with wavelengths >450 nm, achieving PSS of ca >70% trans (FIG. 3C). […] Multiple cycles of photochemical isomerization are possible, in keeping with the fatigue-resistance of azobenzene photoswitches (FIG. 3E).
UV-Vis spectrometry was performed on a Varian Cary 60 UV-Visible Spectrophotometer using disposable BRAND UV-Cuvette Disposable Spectrophotometer/Photometer Ultra-Micro Cuvettes, BrandTech (10 mm light path), an Agilent Technologies PCB 1500 Water Peltier system for temperature control and samples were irradiated with a cairn research Optoscan Monochromator with Optosource High Intensity Arc Lamp equipped with a 75 W UXL-S50A lamp from USHIO Inc. Japan and set to 15 nm full width at half maximum.

BRD3 = target: T1, BRD3 (Homo sapiens, UniProt Q15059); assay: Western blot of BRD3 levels in RS4;11 cells; type: cell-based
T1 construct: endogenous in cells; host or cells: RS4;11 (ATCC CRL-1873)
Procedure: Next, the light dependence of targeted protein degradation was analyzed in RS4;11 cells by western blot analysis of the BET proteins BRD2-4 (FIG. 5). To this end, cells were treated with increasing concentrations of our lead compound, PHOTAC-I-3, for 4 h and pulse-irradiated with 390 nm light (100 ms every 10 s). […] The cereblon-dependent degradation was confirmed by a competition experiment (FIG. 5E), and further validated by siRNA knockdown of cereblon (FIG. 13).
Cells were incubated with different concentrations of selected compounds. They were placed in a light-proof box and preirradiated for 1 min at 390 nm followed by 100 ms pulses every 10 s or were kept in the dark for 4 h.
Cultured cells were collected by centrifugation and washed twice with cold PBS. The supernatant was removed and each cell pellet was lysed in 100 μL NP40-Cell-Lysis Buffer+0.1% SDS+1 mM PMSF+ protease inhibitor cocktail (Sigma Aldrich) for 30 min on ice, with vortexing at 10-minute intervals. Afterwards, cells were centrifuged at 13.000 rpm for 10 min at 4° C. Samples were stored on ice and the supernatant was collected for protein concentration determination using a Thermofisher Scientific Pierce™ Coomassie Plus (Bradford) Assay Kit.
The samples were diluted each with 5 μL Laemmli sample buffer Invitrogen (NuPAGE LDS Sample Buffer 4×) and 1 μL DTT, heated at 95° C. for 5 min. […]

PARP-1 = assay: Immunoblot of PARP-1 cleavage in RS4;11 cells; type: cell-based, human; conditions: 1 μM, sustained 390 nm pulse irradiation
Procedure: FIG. 5 depicts optical control of BRD2-4 levels. A) Immunoblot analysis after treatment of RS4;11 cells with PHOTAC-I-3 for 4 h at different concentrations. Cells were either irradiated with 100 ms pulses of 390 nm light every 10 s (left) or kept in the dark (right). B) Time course of BRD2-4 degradation, c-MYC levels and PARP1 cleavage assayed by immunoblotting. RS4;11 cells were treated with PHOTAC-I-3 (1 μM) and collected at the indicated time points. PHOTAC-I-3 has no effect on BRD2-4 levels in the dark over several hours. […] D) Color-dosing: Wavelength dependence of BRD2/4 degradation promoted by 300 nM PHOTAC-I-3. E) Immunoblot analysis after treatment of RS4;11 cells with PHOTAC-I-3 and combinations with lenalidomide or (+)-JQ1 for 4 h to confirm a cereblon-based mechanism. Cells were either irradiated with 100 ms pulses of 390 nm light every 10 s (left) or kept in the dark (right). F) Optical degradation of BRD4 with the thalidomide derivative PHOTAC-I-10. Immunoblot analysis of RS4;11 cells after treatment with PHOTAC-I-10 for 4 h at different concentrations which were either irradiated with 100 ms pulses of 390 nm light every 10 s (left) or kept in the dark (right). […] The slight effect on c-MYC can be explained by inhibition of BRD4 with the (+)-JQ1 derivative PHOTAC-I-3 in the absence of targeted degradation.

T1 sequence (Q15059 whole entry): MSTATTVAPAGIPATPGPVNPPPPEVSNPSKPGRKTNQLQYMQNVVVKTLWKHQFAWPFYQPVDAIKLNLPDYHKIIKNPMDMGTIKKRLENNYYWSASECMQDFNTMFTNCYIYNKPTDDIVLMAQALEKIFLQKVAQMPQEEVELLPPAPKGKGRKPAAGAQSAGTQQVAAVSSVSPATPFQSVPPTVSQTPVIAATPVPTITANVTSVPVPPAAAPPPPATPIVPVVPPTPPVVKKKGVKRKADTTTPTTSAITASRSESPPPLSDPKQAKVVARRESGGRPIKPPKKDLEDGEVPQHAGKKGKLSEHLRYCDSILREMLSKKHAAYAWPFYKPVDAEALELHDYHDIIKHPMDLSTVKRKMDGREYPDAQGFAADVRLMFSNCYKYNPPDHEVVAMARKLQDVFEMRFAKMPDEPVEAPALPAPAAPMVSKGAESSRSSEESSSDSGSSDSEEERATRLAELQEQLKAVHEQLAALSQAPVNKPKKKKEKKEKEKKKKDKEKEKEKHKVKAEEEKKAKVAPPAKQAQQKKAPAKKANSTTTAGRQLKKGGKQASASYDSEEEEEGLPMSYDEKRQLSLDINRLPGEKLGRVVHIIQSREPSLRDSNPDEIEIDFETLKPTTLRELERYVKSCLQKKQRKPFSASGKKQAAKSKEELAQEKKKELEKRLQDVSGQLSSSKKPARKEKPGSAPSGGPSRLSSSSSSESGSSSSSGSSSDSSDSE

In the case of `COc1cc(/N=N/c2cccc3c2CN(C2CCC(=O)NC2=O)C3=O)cc(OC)c1OCC(=O)NCCCCNC(=O)C[C@@H]1N=C(c2ccc(Cl)cc2)c2c(sc(C)c2C)-n2c(C)nnc21` (stereo partly drawn) [PHOTAC-I-3, 2-((S)-4-(4-chlorophenyl)-2,3,9-trimethyl-6H-thieno[3,2-f][1,2,4]triazolo[4,3-a][1,4]diazepin-6-yl)-N-(4-(2-(4-((E)-(2-(2,6-dioxopiperidin-3-yl)-1-oxoisoindolin-4-yl)diazenyl)-2,6-dimethoxyphenoxy)acetamido)butyl)acetamide], the “optimal wavelength to switch to the cis isomer” value [1] is reported as 390 nm, the “photostationary state (PSS), cis fraction” value ([1]; at 390 nm) is reported as over 90% and the “photostationary state (PSS), trans fraction” value ([1]; irradiation with wavelengths >450 nm) is reported as over 70%. The “exposure time after which BRD3 is largely absent” value (BRD3; 1 μM, 390 nm pulse irradiation) was 1.5 h, the BRD3 levels (BRD3; 4 h, irradiated with violet light (390 nm)) was “significantly reduced” and the “PARP-1 cleavage (indicator of apoptosis)” value (PARP-1) was “increasing cleavage of PARP-1”.
